Assay results as given in PMC6049614 (Chemical Communications (Cambridge, England), 2018).
Where a SMILES comes first, the peptide text is derived from it. Bridges are numbered along the chain shown (N, C = ends). [ ]: non-standard residue; d: D form. Mpa = O=C(O)CCS

What was measured:
Assay type in all cases: binding
human V1a receptors = target: T1, human V1a receptors (Homo sapiens, UniProt P37288); assay: Scintillation proximity assay, displacement of [3H]AVP from human V1a receptor
T1 construct: expressed in transfected cells
Source text: (§1) OT analogues were screened in scintillation proximity assays that displace [^3H]OT or [^3H]AVP from the corresponding receptors. […]
(§2) All RCYs reported are decay corrected to the time of 18F delivery. The protocols for performing
(§3) receptor radioligand binding and potency studies on transfected cells to determine affinity

human OTR = target: T2, human OTR (Homo sapiens, UniProt P30559); assay: Scintillation proximity assay, displacement of [3H]OT from human OTR; conditions: for Ki: human OTR
T2 construct: expressed in transfected cells
T2 sequence (P30559 1-389): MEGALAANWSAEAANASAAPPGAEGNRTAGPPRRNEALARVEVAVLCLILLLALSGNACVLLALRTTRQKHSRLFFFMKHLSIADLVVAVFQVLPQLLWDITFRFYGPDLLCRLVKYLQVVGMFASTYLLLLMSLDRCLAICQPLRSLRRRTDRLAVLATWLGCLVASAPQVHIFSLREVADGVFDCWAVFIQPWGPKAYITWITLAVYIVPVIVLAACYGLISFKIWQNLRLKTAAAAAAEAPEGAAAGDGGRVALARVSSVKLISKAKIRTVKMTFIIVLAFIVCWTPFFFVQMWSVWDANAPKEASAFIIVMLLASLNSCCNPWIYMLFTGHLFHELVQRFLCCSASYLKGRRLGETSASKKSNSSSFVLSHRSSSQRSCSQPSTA
Source text: as §1, §2, §3

[1] = target: T3, human vasopressin receptor V2 (Homo sapiens, UniProt P30518); assay: Scintillation proximity assay, displacement of [3H]AVP from human V2 receptor
T3 construct: expressed in transfected cells
Source text: as §1, §2, §3

T1 sequence (P37288 whole entry): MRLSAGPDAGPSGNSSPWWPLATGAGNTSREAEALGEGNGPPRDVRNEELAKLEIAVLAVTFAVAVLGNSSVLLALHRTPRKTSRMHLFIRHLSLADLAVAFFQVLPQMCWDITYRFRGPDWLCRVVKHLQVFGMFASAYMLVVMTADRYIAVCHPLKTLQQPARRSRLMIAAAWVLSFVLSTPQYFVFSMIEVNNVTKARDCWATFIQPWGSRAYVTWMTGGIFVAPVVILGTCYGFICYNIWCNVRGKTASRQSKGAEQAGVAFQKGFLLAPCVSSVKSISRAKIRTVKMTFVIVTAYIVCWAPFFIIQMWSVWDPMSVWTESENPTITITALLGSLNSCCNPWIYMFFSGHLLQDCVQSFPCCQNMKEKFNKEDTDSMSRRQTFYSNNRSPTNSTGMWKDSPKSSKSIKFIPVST
T3 sequence (P30518 whole entry): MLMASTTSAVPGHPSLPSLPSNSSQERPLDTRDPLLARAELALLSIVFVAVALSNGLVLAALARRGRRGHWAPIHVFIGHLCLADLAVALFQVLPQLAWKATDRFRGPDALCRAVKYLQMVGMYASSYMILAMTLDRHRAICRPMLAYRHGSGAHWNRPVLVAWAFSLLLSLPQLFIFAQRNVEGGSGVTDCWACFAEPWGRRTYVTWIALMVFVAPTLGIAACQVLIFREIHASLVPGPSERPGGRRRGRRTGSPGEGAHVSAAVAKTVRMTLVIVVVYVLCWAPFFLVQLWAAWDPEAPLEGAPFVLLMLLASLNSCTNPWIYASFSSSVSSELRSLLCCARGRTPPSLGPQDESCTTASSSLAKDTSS

| Structure (SMILES) | Ki (human V1a receptors) | Ki (human OTR) | Ki [1] | selectivity towards OTR (human OTR; OTR over V1a, from Ki values of Table 1) |
| --- | --- | --- | --- | --- |
| CC[C@H](C)[C@@H]1NC(=O)[C@H](Cc2ccc(O)cc2)NC(=O)CCSSC[C@@H](C(=O)N2CCC[C@H]2C(=O)N[C@@H](CC(C)C)C(=O)NCC(N)=O)NC(=O)[C@H](CC(N)=O)NC(=O)[C@H](CCC(N)=O)NC1=O [dOTc] | 388 ± 157 nM | 1.6 ± 1.3 nM |  |  |
| CC[C@H](C)[C@H](NC(=O)[C@H](Cc1ccc(O)cc1)NC(=O)CCS)C(=O)N[C@@H](CCC(N)=O)C(=O)N[C@@H](CC(N)=O)C(=O)N[C@@H](CS)C(=O)N1CCC[C@H]1C(=O)N[C@@H](CC(C)C)C(=O)NCC(N)=O [dOToc] | 362 ± 124 nM | 1.2 ± 0.9 nM |  |  |
| CC[C@H](C)[C@H](NC(=O)[C@H](Cc1ccc(O)cc1)NC(=O)CCS)C(=O)N[C@@H](CCC(N)=O)C(=O)N[C@@H](CC(N)=O)C(=O)N[C@@H](CS)C(=O)N1CCC[C@H]1C(=O)N[C@@H](CCCCN)C(=O)NCC(N)=O [dLVToc] ([Mpa]YIQNCPKG-NH2) | 31 ± 9 nM | 6.3 ± 3.6 nM | 5820 ± 1700 nM |  |
| CC[C@H](C)[C@@H]1NC(=O)[C@H](Cc2ccc(O)cc2)NC(=O)CCSSC[C@@H](C(=O)N2CCC[C@H]2C(=O)N[C@@H](CCCCN)C(=O)NCC(N)=O)NC(=O)[C@H](CC(N)=O)NC(=O)[C@H](CCC(N)=O)NC1=O [dLVTc, reference compound] ([Mpa]YIQNCPKG-NH2; disulfide 1-6) | 24 ± 5 nM | 3.4 ± 1 nM | 4840 ± 1670 nM | ~7 fold |
